Measured values from US20160280699A1, “SUBSTITUTED PHENYLALANINE DERIVATIVES” (BAYER PHARMA AKTIENGESELLSCHAFT, priority 2013, published 2016).
pIC50: −log10 of the molar value. Where a name gives a salt, the structure may show the parent alone.

Tests used:
[1] = molecular target: T1, human factor XIa (Homo sapiens, UniProt P03951); assay: Measurement of FXIa inhibition (fluorogenic peptide substrate Boc-Glu(OBzl)-Ala-Arg-AMC); assay type: biochemical; conditions: factor XIa from Kordia, 15 min preincubation, 30 min at 22° C., fluorescence
T1 construct: purchased Kordia
Description: The factor XIa inhibition of the substances according to the invention is determined using a biochemical test system which utilizes the reaction of a peptidic factor XIa substrate to determine the enzymatic activity of human factor XIa. Here, factor XIa cleaves from the peptic factor XIa substrate the C-terminal aminomethylcoumarin (AMC), the fluorescence of which is measured. The determinations are carried out in microtitre plates.
Test substances are dissolved in dimethyl sulphoxide and serially diluted in dimethyl sulphoxide (3000 μM to 0.0078 μM; resulting final concentrations in the test: 50 μM to 0.00013 μM). In each case 1 μl of the diluted substance solutions is placed into the wells of white microtitre plates from Greiner (384 wells). Subsequently, the following are added successively: 20 μl of assay buffer (50 mmol/l Tris buffer pH 7.4; 100 mmol/l sodium chloride; 5 mmol/l calcium chloride; 0.1% bovine serum albumin) and 20 μl of factor XIa from Kordia (0.45 nM in assay buffer). After 15 min of incubation, the enzyme reaction is started by addition of 20 μl of the factor XIa substrate Boc-Glu(OBzl)-Ala-Arg-AMC dissolved in assay buffer (10 μM in assay buffer) from Bachem, the mixture is incubated at room temperature (22° C.) for 30 min and fluorescence is then measured (excitation: 360 nm, emission: 460 nm). The measured emissions of the test batches with test substance are compared to those of control batches without test substance (only dimethyl sulphoxide instead of test substance in dimethyl sulphoxide), and IC50 values are calculated from the concentration/activity relationships.

[2] = test system: human and animal plasma; assay: Determination of anticoagulatory activity: activated partial thromboplastin time (aPTT) in plasma; assay type: biochemical; conditions: concentration of test substance which brings about a 1.5-fold extension of the aPTT, 37° C., C.K. Prest kit
Description: The anticoagulatory activity of the test substances is determined in vitro in human and animal plasma (for example mouse, rat, rabbit, pig and dog plasma). To this end, blood is drawn off in a mixing ratio of sodium citrate/blood of 1:9 using a 0.11 molar sodium citrate solution as receiver. Immediately after the blood has been drawn off, it is mixed thoroughly and centrifuged at about 4000 g for 15 minutes. The supernatant is pipetted off.
The activated partial thromboplastin time (aPTT) is determined in the presence of varying concentrations of test substance or the corresponding solvent using a commercial test kit (C.K. Prest from Diagnostica Stago). The test compounds are incubated with the plasma and the PTT reagent (cephalin, kaolin) at 37° C. for 3 minutes. Coagulation is then started by addition of a 25 mM aqueous calcium chloride solution, and the time when coagulation occurs is determined. The concentration of test substance which brings about a 1.5-fold extension of the aPTT is determined Activity data from this test are listed in Table B below: […]

T1 sequence (P03951 388-625 limits assumed): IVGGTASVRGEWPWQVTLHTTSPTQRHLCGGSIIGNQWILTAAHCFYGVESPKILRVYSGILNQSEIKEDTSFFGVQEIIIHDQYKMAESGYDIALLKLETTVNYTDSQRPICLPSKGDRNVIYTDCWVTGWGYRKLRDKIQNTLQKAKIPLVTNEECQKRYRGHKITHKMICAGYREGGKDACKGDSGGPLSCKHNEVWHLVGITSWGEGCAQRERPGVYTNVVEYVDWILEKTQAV
T1 sequence (P03951 19-387 partner limits assumed): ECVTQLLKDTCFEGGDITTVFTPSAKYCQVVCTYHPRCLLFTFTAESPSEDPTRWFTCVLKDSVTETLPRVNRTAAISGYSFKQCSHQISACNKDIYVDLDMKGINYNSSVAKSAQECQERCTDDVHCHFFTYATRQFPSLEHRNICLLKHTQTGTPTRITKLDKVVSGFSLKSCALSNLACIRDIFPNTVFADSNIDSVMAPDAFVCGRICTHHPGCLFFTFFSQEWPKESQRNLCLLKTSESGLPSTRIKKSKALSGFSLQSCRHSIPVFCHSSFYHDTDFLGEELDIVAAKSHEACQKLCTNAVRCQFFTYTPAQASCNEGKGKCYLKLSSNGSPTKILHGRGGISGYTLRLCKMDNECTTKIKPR

Row | pIC50 [1] | SMILES | aPTT [2] [µmol/L]
1 | 8.57 | NC[C@H]1CC[C@H](C(=O)N[C@@H](Cc2ccc(-c3ccc(C(F)(F)F)nc3)cc2)C(=O)Nc2ccc(-c3nn[nH]n3)cc2)CC1 [Example 18, N-alpha-{[trans-4-(Aminomethyl)cyclohexyl]carbonyl}-N-[4-(2H-tetrazol-5-yl)phenyl]-4-[6-(trifluoromethyl)pyridin-3-yl]-L-phenylalaninamide hydrochloride] | 0.33
2 | 8.42 | COc1cnccc1-c1ccc(C[C@H](NC(=O)[C@H]2CC[C@H](CN)CC2)C(=O)Nc2ccc(-c3nn[nH]n3)cc2)cc1 [Example 20, N-alpha-{[trans-4-(Aminomethyl)cyclohexyl]carbonyl}-4-(3-methoxypyridin-4-yl)-N-[4-(2H-tetrazol-5-yl)phenyl]-L-phenylalaninamide hydrochloride] | 0.22
3 | 8.89 | COc1ccc(-c2ccc(C[C@H](NC(=O)[C@H]3CC[C@H](CN)CC3)C(=O)Nc3ccc(-c4nn[nH]n4)cc3)cc2)c(C)n1 [Example 21, N-alpha-{[trans-4-(Aminomethyl)cyclohexyl]carbonyl}-4-(6-methoxy-2-methylpyridin-3-yl)-N-[4-(2H-tetrazol-5-yl)phenyl]-L-phenylalaninamide hydrochloride] | 0.27
4 | 8.21 | CN(C)c1ncc(-c2ccc(C[C@H](NC(=O)[C@H]3CC[C@H](CN)CC3)C(=O)Nc3ccc(-c4nn[nH]n4)cc3)cc2)c(OCc2ccccc2)n1 [Example 22, N-alpha-{[trans-4-(Aminomethyl)cyclohexyl]carbonyl}-4-[4-(benzyloxy)-2-(dimethylamino)-pyrimidin-5-yl]-N-[4-(2H-tetrazol-5-yl)phenyl]-L-phenylalaninamide hydrochloride] | 0.27
5 | 8.44 | Cc1cnccc1-c1ccc(C[C@H](NC(=O)[C@H]2CC[C@H](CN)CC2)C(=O)Nc2ccc3c(=O)[nH][nH]c3c2)cc1 [Example 23, N-alpha-{[trans-4-(Aminomethyl)cyclohexyl]carbonyl}-4-(3-methylpyridin-4-yl)-N-(3-oxo-2,3-dihydro-1H-indazol-6-yl)-L-phenylalaninamide hydrochloride] | 0.24
6 | 8.51 | NC[C@H]1CC[C@H](C(=O)N[C@@H](Cc2ccc(-c3ccc(N4CCOCC4)nc3)cc2)C(=O)Nc2ccc3c(=O)[nH][nH]c3c2)CC1 [Example 24, N-alpha-{[trans-4-(Aminomethyl)cyclohexyl]carbonyl}-4-[6-(morpholin-4-yl)pyridin-3-yl]-N-(3-oxo-2,3-dihydro-1H-indazol-6-yl)-L-phenylalaninamide hydrochloride] | 0.18
7 | 8.10 | CN(C)c1ncc(-c2ccc(C[C@H](NC(=O)[C@H]3CC[C@H](CN)CC3)C(=O)Nc3ccc(-c4nn[nH]n4)cc3)cc2)cn1 [Example 25, N-alpha-{[trans-4-(Aminomethyl)cyclohexyl]carbonyl}-4-[2-(dimethylamino)pyrimidin-5-yl]-N-[4-(2H-tetrazol-5-yl)phenyl]-L-phenylalaninamide hydrochloride] | 0.29
8 | 8.43 | NC[C@H]1CC[C@H](C(=O)N[C@@H](Cc2ccc(-c3cccnc3N)cc2)C(=O)Nc2ccc(-c3nn[nH]n3)cc2)CC1 [Example 26, N-alpha-{[trans-4-(Aminomethyl)cyclohexyl]carbonyl}-4-(2-aminopyridin-3-yl)-N-[4-(2H-tetrazol-5-yl)phenyl]-L-phenylalaninamide hydrochloride] | 0.19
9 | 8.25 | Cc1ncccc1-c1ccc(C[C@H](NC(=O)[C@H]2CC[C@H](CN)CC2)C(=O)Nc2ccc3c(=O)[nH][nH]c3c2)cc1 [Example 27, N-alpha-{[trans-4-(Aminomethyl)cyclohexyl]carbonyl}-4-(2-methylpyridin-3-yl)-N-(3-oxo-2,3-dihydro-1H-indazol-6-yl)-L-phenylalaninamide hydrochloride] | 0.24
10 | 8.89 | Cc1cc(N2CCOCC2)ncc1-c1ccc(C[C@H](NC(=O)[C@H]2CC[C@H](CN)CC2)C(=O)Nc2ccc(-c3nn[nH]n3)cc2)cc1 [Example 29, N-alpha-{[trans-4-(Aminomethyl)cyclohexyl]carbonyl}-4-[4-methyl-6-(morpholin-4-yl)pyridin-3-yl]-N-[4-(2H-tetrazol-5-yl)phenyl]-L-phenylalaninamide hydrochloride] | 0.21
11 | 8.17 | COc1ccc(-c2ccc(C[C@H](NC(=O)[C@H]3CC[C@H](CN)CC3)C(=O)Nc3ccc4c(=O)[nH][nH]c4c3)cc2)c(C)n1 [Example 30, N-alpha-{[trans-4-(Aminomethyl)cyclohexyl]carbonyl}-4-(6-methoxy-2-methylpyridin-3-yl)-N-(3-oxo-2,3-dihydro-1H-indazol-6-yl)-L-phenylalaninamide hydrochloride] | 0.34
12 | 7.82 | COc1nc(N2CCN(C)CC2)ncc1-c1ccc(C[C@H](NC(=O)[C@H]2CC[C@H](CN)CC2)C(=O)Nc2ccc(-c3nn[nH]n3)cc2)cc1 [Example 31, N-alpha-{[trans-4-(Aminomethyl)cyclohexyl]carbonyl}-4-[4-methoxy-2-(4-methylpiperazin-1-yl)pyrimidin-5-yl]-N-[4-(2H-tetrazol-5-yl)phenyl]-L-phenylalaninamide hydrochloride] | 0.22
13 | 8.62 | NC[C@H]1CC[C@H](C(=O)N[C@@H](Cc2ccc(-c3ccc(Oc4cccnc4)nc3)cc2)C(=O)Nc2ccc(-c3nn[nH]n3)cc2)CC1 [Example 32, N-alpha-{[trans-4-(Aminomethyl)cyclohexyl]carbonyl}-4-[6-(pyridin-3-yloxy)pyridin-3-yl]-N-[4-(2H-tetrazol-5-yl)phenyl]-L-phenylalaninamide hydrochloride] | 0.3
14 | 7.70 | NC[C@H]1CC[C@H](C(=O)N[C@@H](Cc2ccc(-c3ccnc(N4CCNCC4)c3)cc2)C(=O)Nc2ccc(-c3nn[nH]n3)cc2)CC1 [Example 33, N-alpha-{[trans-4-(Aminomethyl)cyclohexyl]carbonyl}-4-[2-(piperazin-1-yl)pyridin-4-yl]-N-[4-(2H-tetrazol-5-yl)phenyl]-L-phenylalaninamide hydrochloride] | 0.29
15 | 8.27 | NC[C@H]1CC[C@H](C(=O)N[C@@H](Cc2ccc(-c3ccc(N4CCOCC4)nc3)cc2)C(=O)Nc2ccc(-c3cc(=O)[nH][nH]3)cc2)CC1 [Example 34, N-alpha-{[trans-4-(Aminomethyl)cyclohexyl]carbonyl}-4-[6-(morpholin-4-yl)pyridin-3-yl]-N-[4-(5-oxo-2,5-dihydro-1H-pyrazol-3-yl)phenyl]-L-phenylalaninamide hydrochloride] | 0.14
16 | 8.26 | NC[C@H]1CC[C@H](C(=O)N[C@@H](Cc2ccc(-c3ccnc(N4CCOCC4)c3)cc2)C(=O)Nc2ccc(-c3nn[nH]n3)cc2)CC1 [Example 35, N-alpha-{[trans-4-(Aminomethyl)cyclohexyl]carbonyl}-4-[2-(morpholin-4-yl)pyridin-4-yl]-N-[4-(2H-tetrazol-5-yl)phenyl]-L-phenylalaninamide hydrochloride] | 0.48
17 | 8.28 | NC[C@H]1CC[C@H](C(=O)N[C@@H](Cc2ccc(-c3cccnc3O)cc2)C(=O)Nc2ccc(-c3nn[nH]n3)cc2)CC1 [Example 37, N-alpha-{[trans-4-(Aminomethyl)cyclohexyl]carbonyl}-4-(2-hydroxypyridin-3-yl)-N-[4-(2H-tetrazol-5-yl)phenyl]-L-phenylalaninamide hydrochloride] | 0.26

Row | SMILES | pIC50 [1] | aPTT [2] [µmol/L]
18 | CN(C)CCCOc1ccc(-c2ccc(C[C@H](NC(=O)[C@H]3CC[C@H](CN)CC3)C(=O)Nc3ccc(-c4noc(=O)[nH]4)cc3)cc2)cn1 [Example 19, N-alpha-{[trans-4-(Aminomethyl)cyclohexyl]carbonyl}-4-{6-[3-(dimethylamino)propoxy]pyridin-3-yl}-N-[4-(5-oxo-4,5-dihydro-1,2,4-oxadiazol-3-yl)phenyl]-L-phenylalaninamide hydrochloride] | 7.80 | 0.17
